{"source": "patent US12613237B2", "about": "“Biosensors for detecting arrestin signaling” (MONTANA MOLECULAR, LLC, priority 2018, dated 2026)", "system": "vasopressin receptor", "assay_type": "cell-based", "settings": "HEK293T cells (FIG. 8), compared to vasopressin"}
{"molecule": "CC[C@H](C)[C@@H]1NC(=O)[C@H](Cc2ccc(O)cc2)NC(=O)[C@@H](N)CSSC[C@@H](C(=O)N2CCC[C@H]2C(=O)N[C@@H](CC(C)C)C(=O)NCC(N)=O)NC(=O)[C@H](CC(N)=O)NC(=O)[C@H](CCC(N)=O)NC1=O", "note": "[oxytocin]", "values": [{"measurement": "beta arrestin signaling (green fluorescence), speed", "value": "significantly slower"}]}
